Holding throughout (assay): NCI-60 cell line screen, 48 h
In assay [1] the test system is OVCAR-8 ovarian.
Assay [2] has as its system TK-10 renal.
Assay [3] relates to HCT-15 colon.
For assay [4], the system named is PC-3 prostate.
The test system of assay [5] is SK-OV-3 ovarian.
The test system of assay [6] is SF-539 CNS.
Assay [7] concerns ACHN renal.
Assay [8] has as its system NCI-H460 lung.
In assay [9] the test system is UACC-257 melanoma.
The subject of assay [10] is OVCAR-3 ovarian.

The structures appear in SMILES notation.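 Dose response: 5 concentrations. Exposure: 48 h. Format: 96-well plates. Endpoint: linear interpolation; highest concentration if not reached. GI50 marks 50% less growth. The concentration for full growth arrest is given as TGI.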 A value given as a limit tells only on which side of the number the result lay.

Regarding `OC(c1cc(C(F)(F)F)nc2c(C(F)(F)F)cccc12)C1CCCCN1` (stereo not given), the GI50 in assay [1] is 1.97 µM; in assay [2] it was 1.8 µM; in assay [3], 3.51 µM; in assay [4], 2.17 µM; in assay [5] it was 1.95 µM; in assay [6], 2.72 µM. The GI50 in assay [7] is 2.69 µM; in assay [8], 2.07 µM; in assay [9], 2.2 µM; in assay [10] it was 2.19 µM. Moreover, the TGI in [1] is 4.24 µM; in assay [2] it was 3.43 µM; in assay [3] it was 10.9 µM; in assay [4] it was 5.88 µM; in assay [5], 4.32 µM; in [6] it was 6.34 µM. The TGI in assay [7] is 7.05 µM; in assay [8] it was 4.14 µM; in assay [9] it was 6.53 µM; in assay [10] it was 4.37 µM.

Turning to `CC(C)(C)[Si](C)(C)OC1[C@@H](O[Si](C)(C)C(C)(C)C)[C@@H](CNC(=O)NC(=O)C(F)(F)F)O[C@H]1n1cnc2c(NC(=O)Nc3ccccc3)ncnc21` (stereo not given in full), the GI50 in assay [1] is 7.76 µM; in assay [2] it was 9.77 µM; in assay [3], 2.94 µM; in assay [4] it was 1.82 µM; in assay [5], 8.74 µM; in [6], 6.74 µM. Besides, the GI50 in assay [7] is 5.54 µM; in assay [8], 6.39 µM; in assay [9], 7.19 µM; in assay [10], 7.63 µM. The TGI in [1] is 16.7 µM; in assay [2], 17.2 µM; in [3], 9.12 µM; in assay [4], 7.91 µM; in assay [5], 15.7 µM; in [6], 13.2 µM. Besides, the TGI in assay [7] was 11.5 µM; in [8] it was 15.7 µM; in assay [9], 15 µM; in assay [10], 14.5 µM.

On to `CN1CCN(c2ccc(Nc3ncc(Cl)c(NC[C@@H]4CCCO4)n3)cc2)CC1`, for which the GI50 in assay [1] was 4.02 µM; in assay [2], 1.75 µM; in assay [3], 2.04 µM; in [4], 2.24 µM; in assay [5], 2.63 µM; in [6], 1.52 µM. In addition, the GI50 in assay [7] is 0.973 µM; in assay [8], 0.573 µM; in assay [9] it was 6.46 µM; in [10], 2.53 µM. The TGI is above 100 µM in assay [1]; 8.39 µM in assay [2]; above 100 µM in assay [3]; above 100 µM in [4]; 63.8 µM in assay [5]; 4.22 µM in [6]. The TGI in assay [7] is above 100 µM; in assay [8] it was 6.55 µM; in assay [9], 32.6 µM; in assay [10] it was above 100 µM.

With `Br[Se]c1ccccn1`, the TGI in assay [1] worked out at 36 µM; in assay [2], 34.5 µM; in assay [3], 38.4 µM; in [4], 30 µM; in [5] it was 34.8 µM; in assay [6], 30 µM. The TGI in assay [7] stood at 29.9 µM; in assay [8], 42 µM; in [9] it was 31.7 µM; in assay [10] it was 28.9 µM.

Source of the values: PubChem BioAssay (NCI).
